Literature values as cited in US20090018020A1, “USE OF COMPOUNDS COMPRISING A POLYSACCHARIDE STRUCTURE AS BIOFERTILISER AND PHYTOSANITARY PRODUCTS” (CENTRE NATIONAL DE LA RECHERCHE SCIENTIFIQUE, priority 2002, published 2009).

Conditions: literature (Mc Dougall and Fry 1989, 1990)

Substance: XLLG
- auxinic or antiauxinic effect: auxinic effect

Substance: XXLG
- auxinic or antiauxinic effect: auxinic effect
